What was measured:
Assay type in all cases: cell-based
T2R10 (TAS2R10) = target: T1, T2R10 (TAS2R10) (Homo sapiens, UniProt Q9NYW0); test: FLIPR calcium assay, block of bitter agonist response, T2R10; settings: unsaturated fatty acid concentration of 200 µM, cells stimulated with known bitter agonist, read-out: percentage block of cellular response over baseline, 10
T1 construct: expressed in transfected cells; host or cells: cells expressing a promiscuous G protein (e.g., G16g44)
T1 sequence (Q9NYW0 1-307): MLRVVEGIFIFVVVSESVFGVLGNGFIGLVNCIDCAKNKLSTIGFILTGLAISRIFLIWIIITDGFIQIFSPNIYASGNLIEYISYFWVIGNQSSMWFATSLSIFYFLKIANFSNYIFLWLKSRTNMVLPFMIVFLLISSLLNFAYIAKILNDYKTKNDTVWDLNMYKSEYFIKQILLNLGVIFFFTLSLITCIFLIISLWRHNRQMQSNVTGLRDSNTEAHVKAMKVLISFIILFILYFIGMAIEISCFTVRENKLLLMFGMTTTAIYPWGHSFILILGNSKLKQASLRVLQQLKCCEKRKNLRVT
Procedure: (§1) Cells expressing a promiscuous […] (e.g., G16g44) were transfected with vectors encoding 18 functional bitter receptor cDNAs, with one receptor per transfection. The cells were transfected directly in 384-well format high-density plates and incubated for 28 hours. Later, cells were loaded with the Ca-specific dye Fluo4-AM. After an incubation of 60 minutes, excess dye is washed off, and cells are stimulated with a known bitter agonist for each receptor and various unsaturated fatty acids. Changes in intracellular fluorescence are recorded using a FLIPR instrument. Bitter antagonists and corresponding receptors are identified based on percentage inhibition of agonist's activity on a given receptor.
(§2) The above protocol was carried out using 16 different unsaturated fatty acids. A particular T2R receptor was identified as being antagonized by a particular unsaturated fatty acid if it triggered a >25% block of agonist's cellular response at 200 μM concentration of unsaturated fatty acid. […] Table 2 indicates the sixteen (16) compounds tested by their compound number from Table 1 above. The 18 bitter taste receptors screened are the human bitter taste receptors we named. T2R01 (TAS2R01), T2R03 (TAS2R03), T2R04 (TAS2R04), T2R07 (TAS2R07), T2R08 (TAS2R08), T2R09 (TAS2R09), T2R10 (TAS2R10), T2R13 (TAS2R13), T2R14 (TAS2R14), T2R16 (TAS2R16), T2R54 (TAS2R39, T2R61 (TAS2R43), T2R63 (TA2R20), T2R64 (TAS2R31), T2R65 (TAS2R19), T2R67 (TAS2R50), T2R71 (TAS2R41), and T2R75 (TAS2R46). The corresponding IUPHAR nomenclature for each receptor is given in parenthesis. In Table 2, these receptors are identified by the last two digits. For example, T2R01 is indicated as 01. Table 2 reports the percentage block of cellular response over baseline at an unsaturated fatty acid concentration of 200 µM.

T2R65 (TAS2R19) = target: T2, T2R65 (TAS2R19) (Homo sapiens, UniProt P59542); test: FLIPR calcium assay, block of bitter agonist response, T2R65; settings: unsaturated fatty acid concentration of 200 µM, cells stimulated with known bitter agonist
T2 construct: expressed in transfected cells; host or cells: cells expressing a promiscuous G protein (e.g., G16g44)
T2 sequence (P59542 1-299): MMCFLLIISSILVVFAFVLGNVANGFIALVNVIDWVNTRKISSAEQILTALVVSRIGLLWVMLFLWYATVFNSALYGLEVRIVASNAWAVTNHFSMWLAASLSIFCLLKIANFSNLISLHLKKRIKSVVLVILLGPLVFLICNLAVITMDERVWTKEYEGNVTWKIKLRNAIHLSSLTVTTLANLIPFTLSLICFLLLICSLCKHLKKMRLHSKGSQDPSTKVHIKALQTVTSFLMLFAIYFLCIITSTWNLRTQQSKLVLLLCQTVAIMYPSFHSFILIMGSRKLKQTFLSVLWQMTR
Procedure: as §1
(§3) The above protocol was carried out using 16 different unsaturated fatty acids. A particular T2R receptor was identified as being antagonized by a particular unsaturated fatty acid if it triggered a >25% block of agonist's cellular response at 200 μM concentration of unsaturated fatty acid. […] Table 2 indicates the sixteen (16) compounds tested by their compound number from Table 1 above. The 18 bitter taste receptors screened are the human bitter taste receptors we named. […]

T2R03 (TAS2R03) = target: T3, T2R03 (TAS2R03) (Homo sapiens, UniProt Q9NYW6); test: FLIPR calcium assay, block of bitter agonist response, T2R03; settings: unsaturated fatty acid concentration of 200 µM, cells stimulated with known bitter agonist
T3 construct: expressed in transfected cells; host or cells: cells expressing a promiscuous G protein (e.g., G16g44)
T3 sequence (Q9NYW6 1-316): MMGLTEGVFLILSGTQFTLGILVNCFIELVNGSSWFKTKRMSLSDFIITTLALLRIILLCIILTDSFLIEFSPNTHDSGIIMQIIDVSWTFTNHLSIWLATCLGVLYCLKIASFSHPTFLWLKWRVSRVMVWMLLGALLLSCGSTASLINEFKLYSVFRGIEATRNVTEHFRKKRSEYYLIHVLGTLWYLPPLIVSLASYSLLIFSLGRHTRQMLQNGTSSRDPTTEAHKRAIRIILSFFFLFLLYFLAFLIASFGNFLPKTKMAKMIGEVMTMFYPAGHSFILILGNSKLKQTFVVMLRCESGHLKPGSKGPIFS
Procedure: as §1, §3

T2R64 (TAS2R31) = target: T4, T2R64 (TAS2R31) (Homo sapiens, UniProt P59538); test: FLIPR calcium assay, block of bitter agonist response, T2R64; settings: unsaturated fatty acid concentration of 200 µM, cells stimulated with known bitter agonist
T4 construct: expressed in transfected cells; host or cells: cells expressing a promiscuous G protein (e.g., G16g44)
T4 sequence (P59538 1-309): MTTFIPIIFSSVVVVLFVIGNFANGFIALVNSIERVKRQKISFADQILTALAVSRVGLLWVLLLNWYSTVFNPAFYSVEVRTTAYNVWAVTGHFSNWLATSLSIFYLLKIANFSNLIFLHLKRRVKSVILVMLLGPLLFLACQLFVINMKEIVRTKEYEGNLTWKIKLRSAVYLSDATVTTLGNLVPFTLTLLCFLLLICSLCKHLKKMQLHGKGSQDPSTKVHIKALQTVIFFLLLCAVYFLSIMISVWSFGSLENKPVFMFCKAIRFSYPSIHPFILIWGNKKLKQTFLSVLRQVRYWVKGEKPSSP
Procedure: as §1, §3

T2R75 (TAS2R46) = target: T5, T2R75 (TAS2R46) (Homo sapiens, UniProt P59540); test: FLIPR calcium assay, block of bitter agonist response, T2R75; settings: unsaturated fatty acid concentration of 200 µM, cells stimulated with known bitter agonist
T5 construct: expressed in transfected cells; host or cells: cells expressing a promiscuous G protein (e.g., G16g44)
T5 sequence (P59540 1-309): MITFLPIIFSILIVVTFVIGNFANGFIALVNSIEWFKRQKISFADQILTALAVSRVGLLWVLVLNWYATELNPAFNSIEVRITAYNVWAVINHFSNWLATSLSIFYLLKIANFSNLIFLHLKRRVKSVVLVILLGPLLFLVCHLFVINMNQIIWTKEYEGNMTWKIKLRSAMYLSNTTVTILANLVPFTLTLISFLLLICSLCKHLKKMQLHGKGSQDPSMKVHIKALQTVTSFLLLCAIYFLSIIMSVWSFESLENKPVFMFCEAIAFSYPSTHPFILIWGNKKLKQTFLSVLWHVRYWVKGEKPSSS
Procedure: as §1, §2

CC(C)=CCC/C(C)=C/C(=O)O [Compound 129]
inhibition at 200 µM (T2R10 (TAS2R10)): > 65%
percentage block of cellular response over baseline, 65 (T2R65 (TAS2R19)): >35%
percentage block of cellular response over baseline, 03 (T2R03 (TAS2R03)): >45%
percentage block of cellular response over baseline, 64 (T2R64 (TAS2R31)): >85%
percentage block of cellular response over baseline, 75 (T2R75 (TAS2R46)): 50%
